The results in this text go back to patent US10131647B2, “Chromene derivatives substituted by alkoxide as inhibitors of the TCR-Nck interaction” (ARTAX BIOPHARMA INC., priority 2013, dated 2018).

Like-named read-outs stand apart in the source and are kept apart here.

Series [1] is described as follows: Pharmacokinetics after intravenous bolus and oral gavage. In kind it is in vivo, Swiss albino mice. Conditions: for F: 50 mg/kg vs IV 5 mg/kg.
Series [2] concerns chronic EAE induced by MOG35-55 peptide. In words: In vivo test on model of chronic EAE (Experimental Autoimmune Encephalomyelitis). Set-up: species or system C57BL/6 female mice.
The mark [3] stands for this setting: mouse, in vivo, IV (5 mg/kg), Swiss albino mice, mean.
Where [4] appears, read: mouse, in vivo, PO (50 mg/kg), Swiss albino mice, mean.
[5] abbreviates: oral, first 10 days from immunization, versus placebo group.
[6] abbreviates: IV, 5 mg/kg, Swiss albino mice, mean.
Setting [7] is: PO, 50 mg/kg, Swiss albino mice, mean.

The AUC(0-inf) is total exposure, with the tail of the curve extrapolated. A low value points to low exposure. A word on the AUC(0-t): it is exposure summed from dosing to a finite time, without extrapolation to infinity. Low readings indicate low exposure, high ones high exposure. One may read the half-life as the time in which the quantity being followed falls by half. Read a low half-life as rapid decline. In general, Cmax refers to the maximum level reached in the sampled fluid or tissue. One may read the Tmax as the time at which the peak concentration occurs. In turn, `Fc1ccc(C2=C(CN3CCCC3)COc3ccc(OCC4CC4)cc32)cc1` [AX-104, 1-((6-(cyclopropylmethoxy)-4-(4-fluorophenyl)-2H-chromen-3-yl)methyl)pyrrolidine] showed a F in series [1] (PO, Swiss albino mice) of 24. Moreover, the bioavailability in series [1] (Swiss albino, mouse, in vivo, 50 mg/kg, oral gavage vs intravenous bolus, text says rats, n=3, read-out: total bioavailability after oral administration) is 24%. Moreover, in series [1] (setting [3]), the total exposure AUC(0-inf) came to 750 ng·h/mL, the area under the curve AUC(0-t) was 724 ng·h/mL, the clearance came to 111 mL/min/kg and the half-life is 8.45 h. In series [1] (mouse, in vivo, IV (5 mg/kg), Swiss albino mice, mean, read-out: Cmax), the Cmax was determined as 1280 ng/mL. Besides, the Vd in series [1] (mouse, in vivo, IV (5 mg/kg), Swiss albino mice, mean, read-out: Vss) came out at 20.6 L/kg. Besides, in series [1] (setting [4]), the total exposure AUC(0-inf) was 1790 ng·h/mL and the AUC(0-t) was 1760 ng·h/mL. The Cmax in series [1] (mouse, in vivo, PO (50 mg/kg), Swiss albino mice, mean, read-out: Cmax) came to 930 ng/mL. Moreover, the Tmax in series [1] (mouse, in vivo, PO (50 mg/kg), Swiss albino mice, mean, read-out: Tmax) was 0.25 h. Also, in series [2] (setting [5]), the “clinical score of the disease (scale 0-6), FIG. 2” value is listed as “reduced score when compared to the placebo group” and the “weight of the animals (weight loss), FIG. 3” value was “weight loss significantly reduced”. Further, in series [2] (overall results of the EAE study), the “impact of the symptoms associated to the model” value was “significantly reducing the impact of the symptoms”.

In series [1] (setting [6]), `COc1ccc2c(c1)C(c1ccc(F)cc1)=C(CN1CCCC1)CO2` [ECRA-24] came in with an AUCint of 840.27 ng·h/mL, an AUClast of 838.43 ng·h/mL, a CL of 99.17 mL/min/kg and a peak concentration (Cmax) of 1168.89 ng/mL. Also, in series [1] (setting [6]), the T1/2 is given as 3.36 h and the Vss stood at 11.37 L/kg. This compound also registered a F in series [1] (PO, Swiss albino mice) of 4. In series [1] (setting [7]), this compound came in with an AUCint of 299.69 ng·h/mL, an AUClast of 297.03 ng·h/mL, a Cmax of 171.56 ng/mL and a T1/2 of 4.93 h. The Tmax in series [1] (setting [7]) came to 0.25 h.
